{
  "source": "patent CN112843052A",
  "about": "“新型表观遗传因子抑制剂2800z在制备抗肝癌药物增敏剂中的应用” (Hunan Normal University, priority 2021, dated 2021)",
  "key": {"[1]": {"tested_on": "HEPG2 cells [HEPG2细胞]", "assay": "In vitro cytotoxicity experiment (体外细胞毒性实验)", "type": "cell-based", "details": "sorafenib 4 uM, 2800Z 60 uM, each alone or combined, 12, 24, 36 h"}, "[2]": {"tested_on": "mouse liver cancer (subcutaneous HEPG2 cells in nude mice) [小鼠肝癌]", "assay": "In vivo anti-liver-cancer experiment (体内抗肝癌实验), subcutaneous HEPG2 tumours in nude mice", "details": "14 days, i.p. three times per week for two weeks"}, "[3]": {"tested_on": "HEPG2 cells [HEPG2细胞]", "details": "known IC50 value of the chemotherapeutic drug; cell line not printed in the clause; cited from earlier work"}, "[4]": {"details": "sorafenib 1 mg/kg, 2800Z 4 mg/kg, each alone or combined"}},
  "data": [
    {"compound": "CNC(=O)c1cc(Oc2ccc(NC(=O)Nc3ccc(Cl)c(C(F)(F)F)c3)cc2)ccn1", "note": "[索拉菲尼, Sorafenib]", "values": [
      {"measurement": "cytotoxicity (in words)", "setting": "[1]", "value": "细胞毒性较差"},
      {"measurement": "liver cancer volume compared with the untreated group (in words)", "setting": "[2]; sorafenib 1 mg/kg or 2800Z 4 mg/kg", "value": "与未给药组的结果相近"},
      {"measurement": "inhibition of mouse liver cancer (in words)", "setting": "[2]; [4]", "value": "抑制作用较弱"},
      {"measurement": "liver cancer (tumour) volume", "setting": "[2]; [4]", "value": "~1000", "unit": "mm3"},
      {"measurement": "IC50", "setting": "[3]", "value": 10, "unit": "µM"}
    ]}
  ]
}
